Assay results reported in publication PMC10267362, “Boron-peptide conjugates with angiopep-2 for boron neutron capture therapy” (Frontiers in Medicine, 2023).

How the values were obtained:
U87MG cells = assay: Boron uptake in cells by ICP-AES; assay type: cell-based, human; settings: 0–0.8 mM for 12 h
Description: (§1) Cell lines established from human glioma (U87MG, U251, and HS683), melanoma (A375), non-small cell lung cancer (A549), and hepatocellular carcinoma (HepG2) were obtained from the National Infrastructure of Cell Line Resource in China, authenticated, and cultured in DMEM, supplemented with 10% fetal bovine serum (HyClone) and 100 IU/mL penicillin/streptomycin (all Sigma-Aldrich unless otherwise noted). Cells were routinely tested for mycoplasma using the Mycoplasma Test Kit (Cellorlab, China). All cells were maintained in a humidified incubator at 5% CO2 and 37°C after defrosting and cultured in the exponential growth phase before each experiment.
(§2) After treatment with boronated peptides or BPA (HEC Pharm, Dongguan, China), boron concentrations in human cells or mice tissues were measured by inductively coupled plasma atomic emission spectroscopy (abbr., ICP-AES; Leeman’s Prodigy 7) using published methods ([16]).
(§3) An efficient boron delivery agent should enhance boron uptake in cancer cells. Thus, we analyzed boron concentrations on 6 human cancer cell lines derived from glioma (U87MG, U251, and HS683), melanoma (A375), non-small cell lung cancer (A549), or hepatocellular carcinoma (HepG2) after treatment with various concentrations of ANG-B, TAT-B, or T7-B for 12 h. BPA was tested in parallel for comparison.
(§4) Figure 1 Boron concentrations in 6 human cell lines derived from glioma (U87MG, U251, and HS683), melanoma (A375), non-small cell lung cancer (A549), or hepatocellular carcinoma (HepG2). Cells were pre-exposed to 0–0.8 mM of ANG-B, TAT-B, T7-B, or BPA for 12 h. Boron concentrations were then analyzed by ICP-AES in HS683 (A), U251 (B), U87MG (C), A375 (D), HepG2 (E), or A549 cells (F). Mean values with standard errors are shown.

[1] = melanoma patients; cited from earlier work
Text: Boron delivery agent is one of the critical factors limiting the expansion of BNCT application in cancer treatment. An ideal boron delivery agent should be low toxicity, high tumour uptake, quick blood clearance, T/N ratio > 3, and low accumulation in healthy tissues. Unfortunately, no existing boron delivery agents can fulfil all these requirements. Historically, BPA is the most popular boron delivery agent in clinical BNCT. Cancer cells usually promote cellular amino acid transport and result in increased uptake of BPA, especially in melanoma cells ([27]). A study evaluated the biodistributi ...

[2] = system: HS683 intracranial glioma; assay: In vivo BNCT in intracranial glioma mouse model, 18F-FDG PET/CT; settings: for SUV (18F-FDG uptake) in tumour tissues after BNCT, compared to control group: PET/CT, p < 0.05
Description: The glioma mouse model was established as reported recently ([16]). HS683 cells were transfected with luciferase-expressing vector (Lenti-UTR-Luc-Blank Vector; Promega). BALB/c nude mice were anesthetized by intraperitoneal injection of tribromoethanol (150 mg/kg) and then placed in a stereotaxic instrument. A hole was made in the mouse skull and 5 μL of HS683 cell suspension (2 × 10^7 cells/mL) was injected into the brain using the stereotaxic instrument. The growth state of glioma tumours in mice was monitored by bioluminescent imaging (IVIS 3D Perkin Elmer). Animal experiments were performed according to the protocols approved by the Animal Use Review Board and Ethical Committee of Shenzhen Bay Laboratory (permit no. AFRQS202101).
During BNCT, five mice per group were injected with 2.5 mM/kg of BPA (5% fructose solution) or ANG-B solution through the tail vein. 90 min later, mice were anesthetized with an intraperitoneal injection of tribromoethanol at a dose of 150 mg/kg and then fixed in a mould for BNCT irradiation of the mouse head using a published method ([16]). Mice were treated with 2 kW of neutron flux for 2 h each time and four times for each mouse in 1 week, to achieve a total neutron flux of 12.5 ± 0.5 × 10^11 n/cm^2. Mice were anesthetized with 2% isoflurane at 25°C and imaged with PET/CT (nanoSCAN, Mediso) with 1.5 uCi/g ^18F-FDG at 1 day before or 31 days after BNCT. Image processing and analyses were performed by AMIDE (RRID: SCR_005940), where ROI, SUV values, and tumour volume were determined.
The glioma mouse model was further used in BCNT tests for ANG-B. The body weight of all the used mice was monitored during the whole process, where no obvious health issues with body weight loss were noticed (Supplementary Figure S6A). PET imaging is usually used to evaluate therapeutic response of glioma patients or mouse models ([16], [21], [22]). Therefore, we employed ^18F-FDG-based PET/CT to estimate intracranial tumour volume for each mouse 1 day before and 31 days after BNCT treatments (Figure 4A). An additional lower concentration of ANG-B at 1 mM/kg (i.e., ANG-B low) was included for comparison.

[3] = Boron biodistribution in intracranial glioma mouse model (ICP-AES); assay type: in vivo
Description: The glioma mouse model was established as reported recently ([16]). HS683 cells were transfected with luciferase-expressing vector (Lenti-UTR-Luc-Blank Vector; Promega). BALB/c nude mice were anesthetized by intraperitoneal injection of tribromoethanol (150 mg/kg) and then placed in a stereotaxic instrument. A hole was made in the mouse skull and 5 μL of HS683 cell suspension (2 × 10^7 cells/mL) was injected into the brain using the stereotaxic instrument. The growth state of glioma tumours in mice was monitored by bioluminescent imaging (IVIS 3D Perkin Elmer). Animal experiments were performed according to the protocols approved by the Animal Use Review Board and Ethical Committee of Shenzhen Bay Laboratory (permit no. AFRQS202101). After treatment with boronated peptides or BPA (HEC Pharm, Dongguan, China), boron concentrations in human cells or mice tissues were measured by inductively coupled plasma atomic emission spectroscopy (abbr., ICP-AES; Leeman’s Prodigy 7) using published methods ([16]). Proper microenvironmental components are critical for the treatment response of glioma ([19], [20]). Thus, we constructed an intracranial mouse glioma model based on HS683 cells and a research plan based on this model for testing ANG-B effects (Figure 3A). In order to monitor the intracranial tumour growth, we used luciferase-expressing cells for this mouse model (Supplementary Figure S5A). Boron biodistribution was examined at the time point for thermal neutron irradiation. 2.5 mM/kg of ANG-B or BPA (in 5% fructose solution) was injected into mice, and tissues or organs from the tumour, blood, brain, lung, liver, heart, spleen, and kidney were then collected at indicated time points for measuring boron concentrations (Supplementary Figure S5B). […] At 4 h after drug injection, the T/N ratio of ANG-B was 5.61 ± 1.0 and the T/B ratio was 9.42 ± 2.47.

HS683 cells [4] = assay: Clonogenic cell survival assay after BNCT (thermal neutron irradiation) in vitro; assay type: cell-based, human; settings: 5 mM drug for 12 h, neutron flux 3.0 ± 0.4 × 10^11 n/cm^2 in 2 h, colonies after 2 weeks, mean ± SD, three biological repeats
Description: Thermal neutron radiation was given as described previously ([16]). A high-current proton beam (3.5 MeV) generated from a radio frequency quadrupole (RFQ) accelerator at the China Spallation Neutron Source was used to bombard a lithium target and produce thermal neutrons (0.5 eV-10 keV) for BNCT.
HS683 cells (10^6/sample) were prepared in centrifuge tubes (1.5 mL, Eppendorf) and treated with ANG-B, TAT-B, T7-B, or BPA at various concentrations (0.0–5.0 mM) for 12 h. Epithermal neutrons were given with a total neutron flux of 3.0 ± 0.4 × 10^11 n/cm^2 given in 2 h. The drug-containing medium was then washed off and desirable numbers of cells in single-cell suspension were seeded into 6-well plates to grow colonies in 2 weeks. Colonies were fixed in 70% ethanol at room temperature for 10 min, and stained with 0.1% crystal violet. Colonies with more than 50 cells were scored as clonogenic survivors.
BNCT eliminates cancer cells by heavy charged particle rays, where reproductive cell death plays a vital role in the treatment outcome ([17], [18]). Here we employed the clonogenic survival assay to analyze the reproductive cell death of glioma cells after BNCT treatment in vitro. To guarantee the performance of BNCT in vitro, we designed and manufactured a tube-holding device for thermal neutron irradiation of cells (Figure 2A). BNCT with these boron delivery agents were tested on HS683 cells. […] BNCT with 5 mM ANG-B caused 86.5% ± 5.3% of clonogenic cell death. […] Therefore, ANG-B was selected for the following in vivo study.

[5] = system: HS683 intracranial glioma; assay: TUNEL apoptosis assay in mouse tumours after BNCT; assay type: in vivo; settings: 1 day or 7 days after treatment
Description: DNA fragmentation in apoptosis induced by BNCT was assessed using the one-step TUNEL apoptosis assay kit following the manufacturer’s protocol (Abbkine Scientific Co., Ltd., China).
In order to evaluate the ^18F-FDG uptake in tumour tissues under different treatment conditions, SUV data were calculated based on a reference region ([23]). […] Based on the 3D PET image data, we also estimated tumour volume before and after BNCT treatment for each mouse (Figure 4B). […] By contrast, tumour size in the control group kept increasing.
Supplementary Figure 6. In vivo effects of ANG-B based BNCT. (A) Body weight of glioma mouse model after treatment. (B) SUVmax analyses (indicating of FDG uptake) of glioma tumors in PET/CT imaging before and after BNCT treatment. (C) Apoptotic cells in tumor at 1 day or 7days after ANG-B based BNCT treatment as measured by TUNEL assay. Mann–Whitney U test; *p < 0.05.

HepG2 cells = assay: Boron uptake in cells by ICP-AES; assay type: cell-based, human; settings: 0–0.8 mM for 12 h, p < 0.05
Description: as §1, §2, §3, §4

A375 cells = assay: Boron uptake in cells by ICP-AES; assay type: cell-based, human; settings: A375 cells (printed A357), 0–0.8 mM for 12 h, p < 0.05
Description: as §1, §2, §3, §4

HS683 cells [6] = assay: Boron uptake in cells by ICP-AES; assay type: cell-based, human; settings: 0–0.8 mM for 12 h, p < 0.05
Description: as §1, §2, §3, §4

[7] = glioma mouse model, 2.5 mM/kg in 5% fructose solution, time not stated
[8] = 4 h after tail-vein injection of 2.5 mM/kg, intracranial HS683 glioma mice, ICP-AES, three mice per group

| Compound | boron uptake compared with boronated peptides (U87MG cells) | T/N ratio [1] | skin-to-blood ratio [1] | SUV (18F-FDG uptake) in tumour tissues after BNCT, compared to control group ([2]; 2.5 mM/kg) | T/B ratio of boron [3, 7] | T/N ratio of boron [3, 7] | clonogenic cell death after BNCT (HS683 cells [4]) | apoptotic cells in mouse tumours after BNCT [5] | boron uptake compared with BPA (HepG2 cells) | boron uptake compared with BPA (A375 cells) | boron uptake compared with BPA (HS683 cells [6]) | SUV (18F-FDG uptake) in tumour tissues after BNCT, compared to control group ([2]; 1 mM/kg (ANG-B low)) | tumour volume at 31 days after BNCT treatment ([2]; 2.5 mM/kg, 18F-FDG PET imaging before and after BNCT) | glioma-targeting effects and blood clearance compared with BPA ([3]; 2.5 mM/kg tail vein, 1, 2, 4 or 6 h, glioma mouse model) | Tumour/blood (T/B) ratio of boron [3, 8] | Tumour/normal (T/N) tissue ratio of boron [3, 8] |
| --- | --- | --- | --- | --- | --- | --- | --- | --- | --- | --- | --- | --- | --- | --- | --- | --- |
| N[C@@H](Cc1ccc([10B](O)O)cc1)C(=O)O [BPA, ^10B-p-boronophenylalanine, reference compound] | took up more BPA | 3.40 | 1.31 | significantly decreased SUV | approximately 2 | approximately 2 | 73.3% ± 6.0% |  |  |  |  |  |  |  |  |  |
| MASMTGGQQMG [T7-B, boron-peptide conjugate used as control] |  |  |  |  |  |  | 54.5% ± 1.1% |  |  |  |  |  |  |  |  |  |
| TFFYGGSRGKRNNFKTEEYC [ANG-B, N-terminal boron-containing derivative of angiopep-2 with 10B-4-carboxyphenylboronic acid at N terminus and cysteine at C terminus] |  |  |  | significantly decreased SUV |  |  | 86.5% ± 5.3% | more apoptotic cells | significantly more boron uptake than BPA | significantly more boron uptake than BPA | significantly more boron uptake than BPA | significantly decreased SUV | significantly decreased tumour volume | significantly better | 9.42 ± 2.47 | 5.61 ± 1.0 |
